Experimental data published in patent EP0908457B1, “3-(1,2-benzisothiazol- and isoxazol-5-Y1)-2,4(1H,3H)-pyrimidinedione or thione and 3-(1,2-benzisothiazol- and isoxazol-5-y1)-4(3H)-pyrimidinone or thione herbicidal agents” (BASF AKTIENGESELLSCHAFT, priority 1997, dated 1999).

What was measured:
[1] = tested on: Echinochloa oryzoides (Ard.) Fritsch.; assay: Preemergence weed control under flooded paddy conditions, ECHORC (Watergrass (Calif.)); assay type: in vivo; conditions: preemergence, flooded paddy, rated three to four weeks after treatment
[2] = tested on: Cyperus iria; assay: Preemergence weed control under flooded paddy conditions, CYPIR (Rice Flatsedge); assay type: in vivo; conditions: preemergence, flooded paddy, rated three to four weeks after treatment
[3] = tested on: Cyperus serotinus, Rottb.; assay: Preemergence weed control under flooded paddy conditions, CYPSE (Flatsedge); assay type: in vivo; conditions: preemergence, rated three to four weeks after treatment
[4] = tested on: Monochoria vaginalis, Presl.; assay: Preemergence weed control under flooded paddy conditions, MOOVA (Monochoria); assay type: in vivo; conditions: preemergence, flooded paddy, rated three to four weeks after treatment
[5] = tested on: Sagittaria pygmaea, L.; assay: Preemergence weed control under flooded paddy conditions, SAGPY (Arrowhead (Pygmaea)); assay type: in vivo; conditions: preemergence, flooded paddy, rated three to four weeks after treatment
[6] = tested on: Oryza sativa, (L.) Tebonnet; assay: Rice tolerance to post-transplant applications under flooded paddy conditions (Example 187), ORYSAT (Rice, Tebonnet); conditions: rated three to four weeks after treatment
Further: meaning of each grade not given here.

SMILES | herbicidal effect rating, ECHORC ([1]; Rate 0.0320 kg/ha) | herbicidal effect rating, ECHORC ([1]; Rate 0.0620 kg/ha) | herbicidal effect rating, ECHORC ([1]; Rate 0.1250 kg/ha) | herbicidal effect rating, ECHORC ([1]; Rate 0.2500 kg/ha) | herbicidal effect rating, CYPIR ([2]; Rate 0.0320 kg/ha) | herbicidal effect rating, CYPIR ([2]; Rate 0.0620 kg/ha) | herbicidal effect rating, CYPIR ([2]; Rate 0.1250 kg/ha) | herbicidal effect rating, CYPIR ([2]; Rate 0.2500 kg/ha) | herbicidal effect rating, CYPSE ([3]; Rate 0.0320 kg/ha) | herbicidal effect rating, MOOVA ([4]; Rate 0.0620 kg/ha) | herbicidal effect rating, MOOVA ([4]; Rate 0.2500 kg/ha) | herbicidal effect rating, SAGPY ([5]; Rate 0.0320 kg/ha) | herbicidal effect rating, SAGPY ([5]; Rate 0.0620 kg/ha) | herbicidal effect rating, SAGPY ([5]; Rate 0.1250 kg/ha) | herbicidal effect rating ORYSAT ([6]; Rate 0.0320 kg/ha) | herbicidal effect rating ORYSAT ([6]; Rate 0.0620 kg/ha) | herbicidal effect rating ORYSAT ([6]; Rate 0.1250 kg/ha) | herbicidal effect rating ORYSAT ([6]; Rate 0.2500 kg/ha) | herbicidal effect rating, CYPSE ([3]; Rate 0.2500 kg/ha) | herbicidal effect rating, SAGPY ([5]; Rate 0.2500 kg/ha) | further results
Cn1c(C(F)(F)F)cc(=O)n(-c2ccc3snc(C(C#N)=Cc4ccco4)c3c2)c1=O [Example 594, 1,2-Benzisothiazole-3-acetonitrile, 5-[3,6-dihydro-3-methyl-2,6-dioxo-4-(trifluoromethyl)-1(2H)-pyrimidinyl]-alpha-furfurylidene-] | 3.0 | 5.0 | 6.0 | 7.0 | 3.0 | 5.0 | 5.0 | 9.0 | 0.0 | 7.0 | 9.0 | 2.0 | 4.0 | 5.0 | 1.0 | 2.0 | 2.0 | 3.0 | – | – | herbicidal effect rating, MOOVA ([4]; Rate 0.0320 kg/ha): 6.0; herbicidal effect rating, MOOVA ([4]; Rate 0.1250 kg/ha): 9.0
Cn1c(C(F)(F)F)cc(=O)n(-c2ccc3snc(C(C#N)=Cc4ccncc4)c3c2)c1=O [Example 596, 1,2-Benzisothiazole-3-acetonitrile, 5-[3,6-dihydro-3-methyl-2,6-dioxo-4-(trifluoromethyl)-1(2H)-pyrimidinyl]-alpha-(4-pyridylmethylene)-] | 0.0 | 4.0 | 5.0 | 7.0 | 0.0 | 0.0 | 0.0 | 0.0 | 0.0 | 4.0 | 9.0 | 0.0 | 0.0 | 2.0 | 0.0 | 3.0 | 4.0 | 6.0 | 0.0 | 6.0 | herbicidal effect rating, CYPSE ([3]; Rate 0.0620 kg/ha): 0.0; herbicidal effect rating, CYPSE ([3]; Rate 0.1250 kg/ha): 0.0; herbicidal effect rating, MOOVA ([4]; Rate 0.0320 kg/ha): 3.0; herbicidal effect rating, MOOVA ([4]; Rate 0.1250 kg/ha): 7.0
Cc1ccc(C=C(C#N)c2nsc3ccc(-n4c(=O)cc(C(F)(F)F)n(C)c4=O)cc23)cc1 [Example 597, 1,2-Benzisothiazole-3-acetonitrile, 5-[3,6-dihydro-3-methyl-2,6-dioxo-4-(trifluoromethyl)-1(2H)-pyrimidinyl]-alpha-(p-methylbenzylidene)-] | 4.0 | 6.0 | 7.0 | 9.0 | 0.0 | 0.0 | 0.0 | 0.0 | 0.0 | 4.0 | 4.0 | 0.0 | 0.0 | 0.0 | 0.0 | 0.0 | 0.0 | 0.0 | 0.0 | 0.0 | herbicidal effect rating, CYPSE ([3]; Rate 0.0620 kg/ha): 0.0; herbicidal effect rating, CYPSE ([3]; Rate 0.1250 kg/ha): 0.0
Cn1c(C(F)(F)F)cc(=O)n(-c2ccc3snc(C(C#N)=Cc4ccc[nH]4)c3c2)c1=O [Example 598, 1,2-Benzisothiazole-3-acetonitrile, 5-[3,6-dihydro-3-methyl-2,6-dioxo-4-(trifluoromethyl)-1(2H)-pyrimidinyl]-alpha-(pyrrol-2-ylmethylene)-] | 0.0 | 0.0 | 0.0 | 0.0 | 0.0 | 0.0 | 2.0 | 3.0 | 0.0 | – | 7.0 | 0.0 | 0.0 | 0.0 | 0.0 | 0.0 | 3.0 | 3.0 | 0.0 | 0.0 | herbicidal effect rating, MOOVA ([4]; Rate 0.1250 kg/ha): 7.0
COc1ccccc1C=C(C#N)c1nsc2ccc(-n3c(=O)cc(C(F)(F)F)n(C)c3=O)cc12 [Example 599, 1,2-Benzisothiazole-3-acetonitrile, 5-[3,6-dihydro-3-methyl-2,6-dioxo-4-(trifluoromethyl)-1(2H)-pyrimidinyl]-alpha-(o-methoxybenzylidene)-] | 0.0 | 0.0 | 0.0 | 4.0 | 0.0 | 0.0 | – | 3.0 | – | 7.0 | 7.0 | 0.0 | 0.0 | 0.0 | 2.0 | 3.0 | 3.0 | 5.0 | 0.0 | 0.0 | herbicidal effect rating, CYPSE ([3]; Rate 0.0620 kg/ha): 0.0; herbicidal effect rating, MOOVA ([4]; Rate 0.0320 kg/ha): 6.0
Cn1c(C(F)(F)F)cc(=O)n(-c2ccc3snc(C(C#N)=Cc4ccc(O)cc4)c3c2)c1=O [Example 600, 1,2-Benzisothiazole-3-acetonitrile, 5-[3,6-dihydro-3-methyl-2,6-dioxo-4-(trifluoromethyl)-1(2H)-pyrimidinyl]-alpha-(p-hydroxybenzylidene)-] | 0.0 | 0.0 | 0.0 | 2.0 | 0.0 | 0.0 | 0.0 | 2.0 | 0.0 | 6.0 | 7.0 | 0.0 | 0.0 | 0.0 | 3.0 | 3.0 | 4.0 | 4.0 | 0.0 | 0.0 | herbicidal effect rating, CYPSE ([3]; Rate 0.0620 kg/ha): 0.0; herbicidal effect rating, MOOVA ([4]; Rate 0.0320 kg/ha): 6.0; herbicidal effect rating, MOOVA ([4]; Rate 0.1250 kg/ha): 7.0
